Data on 16 molecules can be found in US20260115185A1, “QUINOLINE DERIVATIVES WHICH ACT AS KAPPA-OPIOID RECEPTOR ANTAGONISTS” (The Scripps Research Institute, priority 2023, published 2026).

Each structure is given as a SMILES string. Where only a bound is given, the exact number is not on record here.

What is called IC50 is the concentration needed to halve the response being measured. Higher therefore signals weaker potency.

Assay [1] has as its target T1, kappa opioid receptor (KOR) (Homo sapiens, UniProt P41145).
T1 construct: host or cells: U2OS (Tango OPRK1-bla U2OS)
The assay is described as follows: OPRKappa 1 Tango B-Arrestin Assay, antagonist mode (Tango OPRK1-bla U2OS cells, U50488 EC80 challenge). The format is cell-based. The note with it: for Selectivity (MOR/KOR): Kappa selectivity, MOR IC50 / KOR IC50; for IC50: antagonist mode, Tango OPRK1-bla U2OS cells, 6 nM U50488 challenge. The text has this:
OPRKappa 1 Tango B-Arrestin Assay Protocol-Antagonist Mode. […] The assay uses Tango OPRK1-bla U2OS cells which express OPRK1 linked to a GAL4-VP16 transcription factor via a TEV protease site. The cells also express a β-arrestin/TEV protease fusion protein and a β-lactamase (BLA) reporter gene under the control of a UAS response element. Stimulation of the OPRK1 receptor by agonist causes migration of the β-arrestin fusion protein to the GPCR, and through proteolysis liberates GAL4-VP16 from the receptor. The liberated VP16-GAL4 migrates to the nucleus, where it induces transcription of the BLA gene. BLA expression is monitored by measuring fluorescence resonance energy transfer (FRET) of a cleavable, fluorogenic, cell-permeable BLA substrate. As designed, test compounds that are OPRK1 antagonists inhibit agonist activation and migration of the fusion protein, thus preventing proteolysis of GAL4-VP16 and BLA transcription, leading to no increase in well FRET. Compounds were tested in quadruplicate using a 10-point, 1:3 dilution series starting at a nominal concentration of 10 micromolar.
The Tango OPRK1-U20S Dividing cell line was routinely cultured in 150 mm dishes at 37C, 5% CO2 and 95% relative humidity (RH).
On Day 1 of the assay, 16,000 cells in 10 μL of assay media (DMEM-Glutamax—with Sodium Pyruvate, 10% fetal bovine serum stripped with charcoal-dextran (CDS), 25 mM HEPES, 0.1 mM non-essential amino acids, antibiotic mix (penicillin streptomycin)) were seeded into each well of a 384 Greiner 788092 black low profile, clear bottom, low volume plate, and incubated 16-24 hours at 37° C., 5% CO2 and 95% (RH).
On Day 2, 50 nL of test compound in DMSO was added to the appropriate wells and plates were incubated for 30 min at 37° C. 5% CO2 and 95% (RH). Next was added 0.65 μL of commercially available U50488 OPRK1 agonist or DMSO in assay media: this EC80 Challenge consists of 0.6 μL of 111 nM U50488 to yield a final assay concentration of 6 nM). After incubation for 4 hours at 37° C., 5% CO2 and 95% (RH), 2.5 μL of LiveBLazer™FRET B/G (CCF4-AM) Mix (Soln.'s A,B,C,&D) was added to each well and incubated at room temperature in the dark for 2 hours. Well fluorescence was measured on Perkin Elmer's Envision using an Excitation filter 409 nm, Emission filters at 460 nm and […], bottom read.
(§1) The Percent Inhibition was calculated from the median ratio as follows:
• Tango™OPRK1-bla U20S Cells (Invitrogen K1576) • McCoy's 5A Medium, (Invitrogen 16600-082) • Dialyzed Fetal Bovine Serum, (Invitrogen 26400-036) • Non Essential Amino Acids 100× (Invitrogen part 11140-050) • HEPES (pH 7.3) 1M, (Invitrogen 15630-080) • Sodium Pyruvate 100× (Invitrogen 11360-070) • Penicillin Streptomycin, (Invitrogen 15640) • Trypsin 0.25% EDTA (Invitrogen 25200056) • DPBS without Calcium/Magnesium (Invitrogen 14190-136) • DMEM, High Glucose, GlutaMAX (Invitrogen 10569-010) • Fetal Bovine Serum, Charcoal Stripped (Invitrogen 12676-011) • DMSO Dry (Sigma D2650) • U50488 OPRK1 Agonist MW410.29 (Tocris 67198-19-0) • GNTI dihydrochloride OPRK1 Antagonist MW571.5 (Tocris 1282) • Nor-Binaltorphimine dihydrochloridc MW770.75 (Tocris 0347)
LiveBLAzere™-FRET/BG Loading Mix: (Invitrogen K1030 (5 mg)), composed of Solutions A, B, C, and D: • Solution A (6 μL): LiveBLAzer™-FRET/BG Substrate (CCF4-AM) • Solution B (60 μL) • Solution C (904 μL) • Solution C (must add 250 μl of 1N NaOH to 45 mL of Solution C prior to use) • Solution D (30 μL) [Probinicid] (Sigma P8161) make 200 mM stock in NaOH—H2O.

In the next assay the target is T2, mu opioid receptor (MOR) (Homo sapiens, UniProt P35372).
T2 construct: host or cells: U2OS (Discover X OPRMu1-U2OS, PathHunter)
The assay is described as follows: OPRMu1 Discover X β-arrestin Assay, antagonist mode (U2OS cells, DAMGO EC80 challenge). The format is cell-based.
From the text: OPRMu1 Discover X—β-arrestin Assay—Antagonist Mode. […] This assay evaluates the OPRMu1 activation in membrane recruitment of β-arrestin. In addition, the assay evaluates GPCR-β-arrestin proximity using low affinity fragment complementation of beta-galactosidase (beta-gal). The assay employs U20S cells, which express OPRMu1 fused to the complementary beta-gal fragment (enzyme acceptor). As designed, compounds that act as antagonists will prevent receptor activation resulting in reduced well luminescence. Compounds were tested in quadruplicate using a 10-point, 1:3 dilution series starting at a nominal concentration of 10 micromolar.
The Discover X OPRMu1-U20S cell line was cultured in 150 mm dishes at 37° C., 5% CO2 and 95% relative humidity (RH).
On Day 1 of the assay, 5000 cells in 20 μL of assay buffer (Discover X's Cell Plating Reagent 5) were seeded into each well of a 384 Corning 3570 standard white plate, and incubated 16-24 hours at 37° C., 5% CO2 and 95% RH.
On Day 2, 100 nL of test compound in DMSO were added to the appropriate wells and the plates were then incubated for 30 min at 37° C. 5% CO2 and 95% RH. Next, 2.2 μL of DAMGO OPRMu1 agonist (commercially available) or DMSO in assay media. (The EC80 Challenge consists of 1.8 μL of 3.7 μM DAMGO, 0.4 μL of Assay Buffer, with a final assay concentration of 303 nM). After incubation for 3 hours at 37° C. 5% CO2, and 95% RH, 10 μL of Path Hunter Detection Mix was added to each well, and the plate was then incubated at room temperature in the dark for 1 hour. Well luminescence was measured on Perkin Elmer's Envision.
as §1
• DMEM Medium, (Invitrogen 11965) • F12 Medium, (Invitrogen 11765) • Heat Inactivated Fetal Bovine Serum, (Invitrogen 10082147) • Non Essential Amino Acids 100× (Invitrogen 11140-050) • HEPES (pH 7.3) 1M, (Invitrogen 15630-080) • Sodium Pyruvate 100× (Invitrogen 11360-070) • Penicillin Streptomycin, (Invitrogen 15640) • Trypsin 0.25% EDTA (Invitrogen 25200056) • DPBS without Calcium/Magnesium (Invitrogen 14190-136) • DMSO Dry (Sigma D2650) • DAMGO OPRMu1 Agonist MW513.19 (Sigma E7384-5MG) • B-Funaltrexamine Hydrochloride OPRM1 Antagonist MW (SIGMA 0003-2MG) • PathHunter Cell Plating 5 Reagent (Discover X 93-0563R5A) • Corning 3750 Standard 384 well white plate with lid.
PathHunter Detection Mix (DiscoverX 93-0001): 1 part Galacton Star/5 parts Emerald II/19 parts PH Cell Assay Buffer.

T1 sequence (P41145 whole entry): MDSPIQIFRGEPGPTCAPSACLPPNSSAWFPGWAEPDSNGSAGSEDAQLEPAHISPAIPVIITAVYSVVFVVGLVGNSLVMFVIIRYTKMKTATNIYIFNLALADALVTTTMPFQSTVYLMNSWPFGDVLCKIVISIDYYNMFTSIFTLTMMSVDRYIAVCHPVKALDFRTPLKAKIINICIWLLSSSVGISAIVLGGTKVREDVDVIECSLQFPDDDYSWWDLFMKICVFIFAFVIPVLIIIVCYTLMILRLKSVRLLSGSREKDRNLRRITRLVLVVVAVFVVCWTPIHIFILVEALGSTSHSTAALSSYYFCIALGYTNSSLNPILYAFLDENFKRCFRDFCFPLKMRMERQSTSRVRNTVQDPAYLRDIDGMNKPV
T2 sequence (P35372 whole entry): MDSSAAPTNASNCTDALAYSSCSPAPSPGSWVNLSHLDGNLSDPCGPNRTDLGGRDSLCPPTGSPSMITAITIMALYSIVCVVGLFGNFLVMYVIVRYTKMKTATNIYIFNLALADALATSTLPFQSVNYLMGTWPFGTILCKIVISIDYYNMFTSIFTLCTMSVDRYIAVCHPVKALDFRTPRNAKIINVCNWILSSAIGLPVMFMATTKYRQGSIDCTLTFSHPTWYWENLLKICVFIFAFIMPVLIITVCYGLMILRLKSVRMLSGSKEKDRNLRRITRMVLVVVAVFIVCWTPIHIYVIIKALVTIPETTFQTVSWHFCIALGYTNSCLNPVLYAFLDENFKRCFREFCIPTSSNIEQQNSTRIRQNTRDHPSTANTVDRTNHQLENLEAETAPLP

With `CCc1cc(C#N)c2nc(N3CCC(N[C@H]4CCOC[C@@H]4F)CC3)c(-c3ccn(C)n3)c(C)c2c1` [Compound 77], in assay [1], the “Selectivity (MOR/KOR)” value is “+++ (between 100- to 1000-fold selective)” and the IC50 is below 0.001 µM. In addition, the half-inhibitory concentration (IC50) on mu opioid receptor (MOR) lay within 0.1 to 1 µM.
On the same counts, the results for `CCc1cc(F)c2nc(N3CCC(N[C@@H]4CCOC[C@@H]4F)CC3)c(-c3cc(C)n(C)n3)c(C)c2c1` [Compound 14, 1-(3-(1,5-dimethyl-1H-pyrazol-3-yl)-6-ethyl-8-fluoro-4-methylquinolin-2-yl)-N-((3R,4R)-3-fluorotetrahydro-2H-pyran-4-yl)piperidin-4-amine] are “+++ (between 100- to 1000-fold selective)”, 0.001 to 0.01 µM and 0.1 to 1 µM.
With `CCc1cc(F)c2nc(N3CC[C@H](N[C@@H]4CCCOC4)C[C@H]3C)c(-c3cc(C)no3)c(C)c2c1` [Compound 142], in assay [1], the “Selectivity (MOR/KOR)” value is given as “+++ (between 100- to 1000-fold selective)” and the IC50 was below 0.001 µM. The molecule also registered an IC50 on mu opioid receptor (MOR) of 0.01 to 0.1 µM.
As for `CCc1cc(F)c2nc(N3CCN(C(=O)[C@H](Cc4ccccc4)N(C)C)C[C@H]3C)c(-c3nc(C)no3)c(C)c2c1` [Compound 52], in assay [1], the “Selectivity (MOR/KOR)” value is “++ (between 10- and 100-fold selectivity)”; the IC50 is at least 0.1 µM. This molecule displayed an IC50 against mu opioid receptor (MOR) above 1 µM.
For `CCc1cc(F)c2nc(N3CCC(N[C@@H]4COC[C@@H]4F)CC3)c(-c3ccn(C)n3)c(C)c2c1` [Compound 71, 1-(6-ethyl-8-fluoro-4-methyl-3-(1-methyl-1H-pyrazol-3-yl)quinolin-2-yl)-N-((3R,4R)-4-fluorotetrahydrofuran-3-yl)piperidin-4-amine], in assay [1], the “Selectivity (MOR/KOR)” value was “+++ (between 100- to 1000-fold selective)” and the IC50 lay within 0.001 to 0.01 µM. Besides, the IC50 against mu opioid receptor (MOR) is above 1 µM.
In the case of `CCc1cc(C#N)c2nc(N3CCC(N[C@@H]4CCOC[C@@H]4F)CC3)c(-c3ccn(C)n3)c(C)c2c1` [Compound 78], in assay [1], the “Selectivity (MOR/KOR)” value was “++ (between 10- and 100-fold selectivity)”; the IC50 was below 0.001 µM. This molecule also showed a 50% inhibitory concentration (IC50) at mu opioid receptor (MOR) of 0.01 to 0.1 µM.
On to `CCc1cc(F)c2nc(N3CCN(C(=O)CN4CCCC4)C[C@H]3C)c(-c3ccn(C)n3)c(C)c2c1` [Compound 173], for which the “Selectivity (MOR/KOR)” value in assay [1] is “+++ (between 100- to 1000-fold selective)”. For the same molecule, the results for the IC50 (in assay [1]; against mu opioid receptor (MOR)) were 0.001 to 0.01 µM and 0.1 to 1 µM, respectively.
Regarding `CCc1cc(F)c2nc(N3CCN(C(=O)CN4CCC(F)(F)CC4)C[C@H]3C)c(-c3nc(C)no3)c(C)c2c1` [Compound 156], in assay [1], the “Selectivity (MOR/KOR)” value is “++ (between 10- and 100-fold selectivity)”; the IC50 was in the range of 0.001 to 0.01 µM. At mu opioid receptor (MOR), the concentration for half-maximal inhibition (IC50) lay in the range of 0.1 to 1 µM.
With `CCc1cc(F)c2nc(N3CC[C@@H]4[C@@H](CCN4[C@@H]4CCOC4)C3)c(-c3ccn(C)n3)c(C)c2c1` [Compound 123], in assay [1], the “Selectivity (MOR/KOR)” value is reported as “+++ (between 100- to 1000-fold selective)” and the IC50 is 0.01 to 0.1 µM. At mu opioid receptor (MOR), this molecule displayed an IC50 above 1 µM.
On the same counts, the results for `CCc1cc(F)c2nc(N3CCC(N[C@H]4CCOC4)CC3)c(-c3cc(C)n(C)n3)c(C)c2c1` [Compound 18, (S)-1-(3-(1,5-dimethyl-1H-pyrazol-3-yl)-6-ethyl-8-fluoro-4-methylquinolin-2-yl)-N-(tetrahydrofuran-3-yl)piperidin-4-amine] are “+++ (between 100- to 1000-fold selective)”, 0.001 to 0.01 µM and above 1 µM.
Taken in the same sequence, the figures for `CCc1cc(-c2cc(C)nn2C)c2nc(N3CCC(N[C@@H]4CCOC4)CC3)c(-c3ccn(C)n3)c(C)c2c1` [Compound 95] were “+++ (between 100- to 1000-fold selective)”, below 0.001 µM and 0.01 to 0.1 µM.
Take `CCc1cc(F)c2nc(N3CCN(C(=O)C(C)(C)N4CCCC4)C[C@H]3C)c(-c3cc(C)no3)c(C)c2c1` [Compound 179]: the “Selectivity (MOR/KOR)” value in assay [1] was “++ (between 10- and 100-fold selectivity)”. Besides, the IC50 in assay [1] is 0.01 to 0.1 µM; against mu opioid receptor (MOR), above 1 µM.
On to `CCc1cc(F)c2nc(N3CCC(OCCN4CCCC4)CC3)c(-c3nc(C)no3)c(C)c2c1` [Compound 187], for which the “Selectivity (MOR/KOR)” value in assay [1] is recorded as “+++ (between 100- to 1000-fold selective)”. The IC50 in assay [1] is 0.01 to 0.1 µM; on mu opioid receptor (MOR), above 1 µM.
On the same counts, the results for `CCc1cc(F)c2nc(N3CC[C@H](N[C@@H]4CCCOC4)C[C@H]3C)c(-c3ccn(C)n3)c(C)c2c1` [Compound 122] are “+++ (between 100- to 1000-fold selective)”, below 0.001 µM and 0.01 to 0.1 µM.
On the same counts, the results for `CCc1cc(F)c2nc(N3CCN(C(=O)[C@@H]4C[C@@H](O)CN4C)C[C@H]3C)c(-c3ccn(C)n3)c(C)c2c1` [Compound 177] are “+++ (between 100- to 1000-fold selective)”, at least 0.1 µM and above 1 µM.
Consider `CCc1cc(F)c2nc(N3CCN(C(=O)[C@@H]4C[C@@H](O)CN4C)C[C@H]3C)c(-c3cc(C)no3)c(C)c2c1` [Compound 167], for which the “Selectivity (MOR/KOR)” value in assay [1] is “+++ (between 100- to 1000-fold selective)”. Also, the IC50 in assay [1] was 0.001 to 0.01 µM; against mu opioid receptor (MOR), above 1 µM.
